From ChEMBL document CHEMBL3232776, “Emergence of pyrido quinoxalines as new family of antimalarial agents” (Eur J Med Chem, 2014)
Activity calls are given as the source filed them. No cut-off for these calls is given here.

How the values were obtained:
[1] = test system: Plasmodium falciparum; experiment: Antimalarial activity against chloroquine-resistant Plasmodium falciparum Dd2 infected in human erythrocytes assessed as parasite growth inhibition after 50 hrs by SYBR Green1 dye-based fluorescence assay; type: functional, cell-based; details: Dd2, 50 h
[2] = test system: Plasmodium falciparum; experiment: Antimalarial activity against chloroquine-sensitive Plasmodium falciparum 3D7 infected in human erythrocytes assessed as parasite growth inhibition after 50 hrs by SYBR Green1 dye-based fluorescence assay; type: functional, organism-based
[3] = test system: Plasmodium falciparum; experiment: Antimalarial activity against blood stage form of Plasmodium falciparum assessed as incorporation of [3H]hypoxanthine after 72 hrs by liquid scintillation counting; type: functional, organism-based
[4] = test system: Plasmodium falciparum; experiment: Potency index, ratio of ciprofloxacin IC50 to compound IC50 for chloroquine-resistant Plasmodium falciparum Dd2 infected in human erythrocytes; type: functional
[5] = test system: Plasmodium falciparum; experiment: Potency index, ratio of ciprofloxacin IC50 to compound IC50 for chloroquine-sensitive Plasmodium falciparum 3D7 infected in human erythrocytes; type: functional
[6] = test system: HepG2; experiment: Cytotoxicity against human HepG2 cells assessed as cell viability after 72 hrs by MTT assay; type: cell-based; details: HepG2, 72 h
[7] = test system: THP-1; experiment: Cytotoxicity against human THP1 cells assessed as cell viability after 72 hrs by MTT assay; type: cell-based; details: THP-1, 72 h
[8] = Solubility of the compound at 93 uM; type: physicochemical
[9] = Selectivity index, ratio of IC50 for human THP1 cells to IC50 for chloroquine-sensitive Plasmodium falciparum 3D7; type: toxicity, cell-based, THP-1; details: read-out: Ratio IC50
[10] = Selectivity index, ratio of IC50 for human HepG2 cells to IC50 for chloroquine-sensitive Plasmodium falciparum 3D7; type: toxicity, cell-based; details: read-out: Ratio IC50
[11] = Plasmodium falciparum, 3D7, 50 h, read-out: IC50

**Q.** Which IC50 [1] does the source give for `CCOC(=O)c1cnc2ccc3nc(-c4ccc(F)cc4)c(-c4ccc(F)cc4)nc3c2c1O` here?
**A.** 26.9 µM

**Q.** And the IC50 [2, 11]?
**A.** 15.7 µM

**Q.** Which IC50 [3] does the source give for `CCn1cc(C(=O)O)c(=O)c2cc(F)c(N3CCNCC3)nc21` [ENOXACIN] here?
**A.** 20 µM

**Q.** Which IC50 [1] does the source give for `CCOC(=O)C(=CNc1ccc2nc(-c3ccccc3)c(-c3ccccc3)nc2c1)C(=O)OCC` here?
**A.** 15.5 µM

**Q.** What about the IC50 [2, 11] of the same molecule?
**A.** 16 µM

**Q.** Which IC50 [2, 11] does the source give for `CCOC(=O)c1cnc2ccc3nc(-c4ccccc4)c(-c4ccccc4)nc3c2c1O` here?
**A.** 29.8 µM

**Q.** With `CCOC(=O)c1cn(CC)c2ccc3nc(-c4ccccc4)c(-c4ccccc4)nc3c2c1=O` as the molecule, how does the IC50 [1] read?
**A.** 11.3 µM

**Q.** What about the “Ratio IC50” value [4] of the same molecule?
**A.** 2

**Q.** What about the “Ratio IC50” value [5] of the same molecule?
**A.** 2

**Q.** What about the IC50 [2, 11] of the same molecule?
**A.** 15.4 µM

**Q.** For `COc1cccc2c1C(=O)c1c(O)c3c(c(O)c1C2=O)C[C@@](O)(C(=O)CO)C[C@@H]3O[C@H]1C[C@H](N)[C@H](O)[C@H](C)O1` [DOXORUBICIN], which IC50 [6] is on record?
**A.** 0.2 µM

**Q.** And the IC50 [7]?
**A.** 0.05 µM

**Q.** Which solubility [8] does the source give for `C#CCn1cc(C(=O)O)c(=O)c2c3nc(-c4ccccc4)c(-c4ccccc4)nc3ccc21` here?
**A.** Insoluble

**Q.** And the “growth inhibition (GI)” value [2]?
**A.** inactive

**Q.** For `O=C(O)c1cn(Cc2ccc(C(F)(F)F)cc2)c2ccc3nc(-c4ccc(F)cc4)c(-c4ccc(F)cc4)nc3c2c1=O`, which IC50 [2, 11] is on record?
**A.** > 50 µM

**Q.** With `C#CCn1cc(C(=O)OCC)c(=O)c2c3nc(-c4ccccc4)c(-c4ccccc4)nc3ccc21` as the molecule, how does the solubility [8] read?
**A.** Insoluble

**Q.** What about the “Ratio IC50” value [4] of the same molecule?
**A.** 2

**Q.** What about the “Ratio IC50” value [5] of the same molecule?
**A.** 2

**Q.** What about the IC50 [2] of the same molecule?
**A.** ND(Insoluble)

**Q.** With `CCOC(=O)c1cn(Cc2ccc(C(F)(F)F)cc2)c2ccc3nc(-c4ccccc4)c(-c4ccccc4)nc3c2c1=O` as the molecule, how does the solubility [8] read?
**A.** Insoluble

**Q.** What about the “Ratio IC50” value [4] of the same molecule?
**A.** 2

**Q.** And the “Ratio IC50” value [5]?
**A.** 2

**Q.** And the IC50 [2]?
**A.** ND(Insoluble)

**Q.** Which solubility [8] does the source give for `O=C(O)c1cn(Cc2ccc(C(F)(F)F)cc2)c2ccc3nc(-c4ccccc4)c(-c4ccccc4)nc3c2c1=O` here?
**A.** Insoluble

**Q.** And the “growth inhibition (GI)” value [2]?
**A.** inactive

**Q.** For `O=C(O)c1cn(CC(F)(F)F)c2ccc3nc(-c4ccc(F)cc4)c(-c4ccc(F)cc4)nc3c2c1=O`, which IC50 [2, 11] is on record?
**A.** > 50 µM

**Q.** For `O=C(O)c1cn(Cc2ccc(F)cc2)c2ccc3nc(-c4ccccc4)c(-c4ccccc4)nc3c2c1=O`, which solubility [8] is on record?
**A.** Insoluble

**Q.** And the “growth inhibition (GI)” value [2]?
**A.** inactive

**Q.** Which IC50 [7] does the source give for `O=C(O)c1cn(C2CC2)c2cc(N3CCNCC3)c(F)cc2c1=O` [CIPROFLOXACIN] here?
**A.** 60.5 µM

**Q.** What about the IC50 [3] of the same molecule?
**A.** 20 µM

**Q.** What about the IC50 [1] of the same molecule?
**A.** 33.9 µM

**Q.** What about the selectivity ratio [9] of the same molecule?
**A.** 2.61

**Q.** What about the IC50 [2, 11] of the same molecule?
**A.** 23.1 µM

**Q.** Which IC50 [2, 11] does the source give for `CCOC(=O)C(=CNc1ccc2nc(-c3ccc(F)cc3)c(-c3ccc(F)cc3)nc2c1)C(=O)OCC` here?
**A.** 21.3 µM

**Q.** With `CCOC(=O)c1cn(CC(F)(F)F)c2ccc3nc(-c4ccccc4)c(-c4ccccc4)nc3c2c1=O` as the molecule, how does the “Ratio IC50” value [4] read?
**A.** 2

**Q.** And the “Ratio IC50” value [5]?
**A.** 2

**Q.** What about the IC50 [2, 11] of the same molecule?
**A.** 13.1 µM

**Q.** Which results are given for `CCCCn1cc(C(=O)OCC)c(=O)c2c3nc(-c4ccc(F)cc4)c(-c4ccc(F)cc4)nc3ccc21`?
**A.** Ratio IC50 [4]: 2; Ratio IC50 [5]: 2; IC50 [2, 11]: > 50 µM

**Q.** For `C#CCn1cc(C(=O)O)c(=O)c2c3nc(-c4ccc(F)cc4)c(-c4ccc(F)cc4)nc3ccc21`, which IC50 [2, 11] is on record?
**A.** > 50 µM

**Q.** For `CCOC(=O)c1cn(Cc2ccc(F)cc2)c2ccc3nc(-c4ccccc4)c(-c4ccccc4)nc3c2c1=O`, which IC50 [6] is on record?
**A.** 150 µM

**Q.** And the IC50 [7]?
**A.** 200 µM

**Q.** What about the selectivity ratio [10] of the same molecule?
**A.** 21.6

**Q.** And the IC50 [1]?
**A.** 6.27 µM

**Q.** And the selectivity ratio [9]?
**A.** 28.8

**Q.** And the “Ratio IC50” value [4]?
**A.** 3.3

**Q.** What about the “Ratio IC50” value [5] of the same molecule?
**A.** 3.3

**Q.** What about the IC50 [2, 11] of the same molecule?
**A.** 6.94 µM

**Q.** With `O=C(O)c1cn(CC(F)(F)F)c2ccc3nc(-c4ccccc4)c(-c4ccccc4)nc3c2c1=O` as the molecule, how does the solubility [8] read?
**A.** Insoluble

**Q.** What about the “growth inhibition (GI)” value [2] of the same molecule?
**A.** inactive

**Q.** For `Cc1c(F)c(N2CCNC(C)C2)cc2c1c(=O)c(C(=O)O)cn2C1CC1` (stereo not drawn) [GREPAFLOXACIN], which IC50 [3] is on record?
**A.** 20 µM

**Q.** With `CCCCn1cc(C(=O)O)c(=O)c2c3nc(-c4ccc(F)cc4)c(-c4ccc(F)cc4)nc3ccc21` as the molecule, how does the IC50 [2, 11] read?
**A.** 40.4 µM

**Q.** Which IC50 [2, 11] does the source give for `CCn1cc(C(=O)O)c(=O)c2c3nc(-c4ccc(F)cc4)c(-c4ccc(F)cc4)nc3ccc21` here?
**A.** > 50 µM

**Q.** Which solubility [8] does the source give for `CCCCn1cc(C(=O)O)c(=O)c2c3nc(-c4ccccc4)c(-c4ccccc4)nc3ccc21` here?
**A.** Insoluble

**Q.** And the “growth inhibition (GI)” value [2]?
**A.** inactive

**Q.** For `O=C(O)c1cn(Cc2ccc(F)cc2)c2ccc3nc(-c4ccc(F)cc4)c(-c4ccc(F)cc4)nc3c2c1=O`, which IC50 [2, 11] is on record?
**A.** > 50 µM

**Q.** Which results are given for `CCOC(=O)c1cn(Cc2ccc(F)cc2)c2ccc3nc(-c4ccc(F)cc4)c(-c4ccc(F)cc4)nc3c2c1=O`?
**A.** IC50 [6]: 200 µM; IC50 [7]: 140 µM; selectivity ratio [10]: 26.4; IC50 [1]: 7.11 µM; selectivity ratio [9]: 18.4; Ratio IC50 [4]: 2; Ratio IC50 [5]: 2; IC50 [2, 11]: 7.59 µM

**Q.** What does the source list for `C#CCn1cc(C(=O)OCC)c(=O)c2c3nc(-c4ccc(F)cc4)c(-c4ccc(F)cc4)nc3ccc21`?
**A.** Ratio IC50 [4]: 2; Ratio IC50 [5]: 2; IC50 [2, 11]: 18.7 µM

**Q.** With `CCCCn1cc(C(=O)OCC)c(=O)c2c3nc(-c4ccccc4)c(-c4ccccc4)nc3ccc21` as the molecule, how does the “Ratio IC50” value [4] read?
**A.** 2

**Q.** And the “Ratio IC50” value [5]?
**A.** 2

**Q.** What about the IC50 [2, 11] of the same molecule?
**A.** 9.17 µM

**Q.** With `CCOC(=O)c1cn(CC)c2ccc3nc(-c4ccc(F)cc4)c(-c4ccc(F)cc4)nc3c2c1=O` as the molecule, how does the “Ratio IC50” value [4] read?
**A.** 2

**Q.** And the “Ratio IC50” value [5]?
**A.** 2

**Q.** And the IC50 [2, 11]?
**A.** 32.2 µM

**Q.** Which solubility [8] does the source give for `CCn1cc(C(=O)O)c(=O)c2c3nc(-c4ccccc4)c(-c4ccccc4)nc3ccc21` here?
**A.** Insoluble

**Q.** And the “growth inhibition (GI)” value [2]?
**A.** inactive

**Q.** Which IC50 [6] does the source give for `CCOC(=O)c1cn(CC(F)(F)F)c2ccc3nc(-c4ccc(F)cc4)c(-c4ccc(F)cc4)nc3c2c1=O` here?
**A.** 250 µM

**Q.** And the IC50 [7]?
**A.** 275 µM

**Q.** What about the selectivity ratio [10] of the same molecule?
**A.** 63.8

**Q.** And the IC50 [1]?
**A.** 4.6 µM

**Q.** And the selectivity ratio [9]?
**A.** 70.2

**Q.** And the “Ratio IC50” value [4]?
**A.** 5

**Q.** What about the “Ratio IC50” value [5] of the same molecule?
**A.** 5

**Q.** What about the IC50 [2, 11] of the same molecule?
**A.** 3.92 µM

**Q.** For `NC1CCN(c2c(F)cc3c(=O)c(C(=O)O)cn(C4CC4)c3c2Cl)C1` (stereo not drawn) [CLINAFLOXACIN], which IC50 [3] is on record?
**A.** 20 µM

**Q.** What does the source list for `CCOC(=O)c1cn(Cc2ccc(C(F)(F)F)cc2)c2ccc3nc(-c4ccc(F)cc4)c(-c4ccc(F)cc4)nc3c2c1=O`?
**A.** Ratio IC50 [4]: 2; Ratio IC50 [5]: 2; IC50 [2, 11]: > 50 µM
